Data as given in patent US20210268115A1 (priority 2020, published 2021).
Read-outs that look alike come from different tables or passages of the source.

Experiments:
[1] = male, Sprague-Dawley, rat, in vivo
[2] = cynomolgus monkey, in vivo; for Prodrug detectability in plasma after dose administration / Tmax: po; for Tmax: male, 8.8 umol/kg
[3] = In vitro release of therapeutic agent from prodrugs in plasma supplemented with lipoprotein lipase; type: in vitro ADME; conditions: free allopregnanolone (parent API) in dog plasma supplemented with LPL, 37° C.
Procedure: In order to probe the release of free drug from TG prodrugs in the systemic circulation, prodrugs are incubated with plasma (rat, dog, monkey, or human) supplemented with lipoprotein lipase (LPL, 200 IU/ml). LPL is a key enzyme required for the hydrolysis of lipoprotein associated TG in the systemic circulation and is therefore expected to be a key contributor to lipolysis of the re-esterified drug-TG construct in plasma, largely via liberation of fatty acids in the sn-1 and the sn-3 position of the TG-mimetic, prior to drug release from the 2′ position via esterase hydrolysis. LPL is active in plasma but is tethered to the luminal surface of vascular endothelial cells under physiological conditions. In the current in vitro studies, plasma is therefore supplemented with LPL to better reflect the in vivo situation.
To start hydrolysis, 10 μl of LPL solution (10,000 IU/ml) will be added to a mixture of 10 μl of prodrug solution (1 mg/ml dissolved in organic solvent, e.g., THF, DMSO, or acetonitrile) and 500 μl of blank plasma. The mixture will be incubated at 37° C. […] The supernatant will be analyzed by HPLC-MS/MS for the potential products (MG form, acid form, and free drug) of prodrug hydrolysis.
The in vitro hydrolysis profile of selected prodrug compounds will be determined in rat, dog, monkey and/or human plasma supplemented with LPL.

[4] = male, Sprague-Dawley, in vivo

Row | Compound | Cmax ([1]; 2 mg/kg) | Mean Plasma AUC, 0-24 h ([1]; 2 mg/kg) | Tmax ([1]; 2 mg/kg) | other results
1 | CCCCCCCC/C=C\CCCCCCCC(=O)OCC(COC(=O)CCCCCCC/C=C\CCCCCCCC)OC(=O)CCCCCCC(=O)OCO[C@@H]1CC[C@@]2(C)[C@@H](CC[C@@H]3[C@@H]2CC[C@]2(C)[C@@H](C(C)=O)CC[C@@H]32)C1 [Compound I-41, ALL-ASI-C8-2-TG-oleate] | 129 nM | 211 nmol·h/L | 1.7 h | –
2 | CCC(=O)OCC(COC(=O)CC)OC(=O)C(C)CCCCCCCCC(C)C(=O)OC(C)OC(=O)O[C@@H]1CC[C@@]2(C)[C@@H](CC[C@@H]3[C@@H]2CC[C@]2(C)[C@@H](C(C)=O)CC[C@@H]32)C1 (stereo partly shown) [Compound I-6, ALL-CMSI-C12a′aMe-2-TG] | 239 nM | 320.9 nmol·h/L | 1 h | –
3 | CCCCCCCC/C=C\CCCCCCCC(=O)OCC(COC(=O)CCCCCCC/C=C\CCCCCCCC)OC(=O)CCCCC(C)CC(=O)OCOC(=O)O[C@@H]1CC[C@@]2(C)[C@@H](CC[C@@H]3[C@@H]2CC[C@]2(C)[C@@H](C(C)=O)CC[C@@H]32)C1 (stereo partly shown) [Compound I-49, ALL-CASI-C8b′Me-2-TG-oleate] | 370 nM | 513 nmol·h/L | 1.7 h | –
4 | CCCC(=O)OCC(COC(=O)CCC)OC(=O)CC(C)CC(=O)OC(C)OC(=O)O[C@@H]1CC[C@@]2(C)[C@@H](CC[C@@H]3[C@@H]2CC[C@]2(C)[C@@H](C(C)=O)CC[C@@H]32)C1 (stereo partly shown) [Compound I-37, ALL-CMSI-C5bMe-2-TG-butyrate] | – | – | – | Cmax ([1]; po): 138 nM; Mean Plasma AUC, 0-24 h ([1]; po): 191 nmol·h/L; Tmax ([1]; po): 0.8 h
5 | CCCCCCCC(=O)OCC(COC(=O)CCCCCCC)OC(=O)CC(C)CC(=O)OC(C)OC(=O)O[C@@H]1CC[C@@]2(C)[C@@H](CC[C@@H]3[C@@H]2CC[C@]2(C)[C@@H](C(C)=O)CC[C@@H]32)C1 (stereo partly shown) [Compound I-36, ALL-CMSI-C5bMe-2-TG-octanoate] | – | – | – | Tolerability of oral administration [2]: well-tolerated; Prodrug detectability in plasma after dose administration [2]: detectable in plasma samples after dose administration at all time-points; Tmax [2]: 4.0 h; Mean Plasma AUC, 0-24 h ([1]; po): 312 nmol·h/L; Tmax ([1]; po): 1.2 h
6 | CCC(=O)OCC(COC(=O)CC)OC(=O)C(C)CCCCCCCCC(C)C(=O)OCCCCC(=O)O[C@@H]1CC[C@@]2(C)[C@@H](CC[C@@H]3[C@@H]2CC[C@]2(C)[C@@H](C(C)=O)CC[C@@H]32)C1 (stereo partly shown) [Compound I-5, ALL-FSI5-C12a′aMe-2-TG] | 62.8 nM | 83.9 nmol·h/L | 1.8 h | –
7 | CCCCCCCC(=O)OCC(COC(=O)CCCCCCC)OC(=O)CC(C)CC(=O)OCOC(=O)O[C@@H]1CC[C@@]2(C)[C@@H](CC[C@@H]3[C@@H]2CC[C@]2(C)[C@@H](C(C)=O)CC[C@@H]32)C1 (stereo partly shown) [Compound I-47, ALL-CASI-C5bMe-2-TG-octanoate] | – | – | – | Tolerability of oral administration [2]: well-tolerated; Prodrug detectability in plasma after dose administration [2]: detectable in plasma samples after dose administration at all time-points; Tmax [2]: 4.0 h
8 | CCCCCCCC/C=C\CCCCCCCC(=O)OCC(COC(=O)CCCCCCC/C=C\CCCCCCCC)OC(=O)CCCCC(=O)OCO[C@@H]1CC[C@@]2(C)[C@@H](CC[C@@H]3[C@@H]2CC[C@]2(C)[C@@H](C(C)=O)CC[C@@H]32)C1 [Compound I-40, ALL-ASI-C6-2-TG-oleate] | 165 nM | 265 nmol·h/L | 1.7 h | –
9 | CCCCCCCCCCCCCCCC(=O)OCC(COC(=O)CCCCCCCCCCCCCCC)OC(=O)CC(C)CC(=O)OC(C)OC(=O)O[C@@H]1CC[C@@]2(C)[C@@H](CC[C@@H]3[C@@H]2CC[C@]2(C)[C@@H](C(C)=O)CC[C@@H]32)C1 (stereo partly shown) [Compound I-8, ALL-CMSI-C5bMe-2-TG] | 241 nM | 368.1 nmol·h/L | 2.3 h | Parent API present at end of experiment (%) [3]: B (≥20% and <60% release into plasma)
10 | CC(=O)[C@H]1CC[C@H]2[C@@H]3CC[C@H]4C[C@H](O)CC[C@]4(C)[C@H]3CC[C@]12C [Allopregnanalone, 5α-pregnan-3α-ol-20-one] | – | – | – | Rat - cumulative lymphatic transport: Mean, total lymphatic transport over 6 or 8 hours (%) [4]: 0.1%
11 | CCCCCCCC/C=C\CCCCCCCC(=O)OCC(COC(=O)CCCCCCC/C=C\CCCCCCCC)OC(=O)CC(C)CCCCC(=O)OCO[C@@H]1CC[C@@]2(C)[C@@H](CC[C@@H]3[C@@H]2CC[C@]2(C)[C@@H](C(C)=O)CC[C@@H]32)C1 (stereo partly shown) [Compound I-42, ALL-ASI-C8bMe-2-TG-oleate] | 334 nM | 470 nmol·h/L | 1.5 h | –
12 | CC(=O)OCC(COC(C)=O)OC(=O)CC(C)CC(=O)OC(C)OC(=O)O[C@@H]1CC[C@@]2(C)[C@@H](CC[C@@H]3[C@@H]2CC[C@]2(C)[C@@H](C(C)=O)CC[C@@H]32)C1 (stereo partly shown) [Compound I-38, ALL-CMSI-C5bMe-2-TG-acetate] | – | – | – | Cmax ([1]; po): 335 nM; Mean Plasma AUC, 0-24 h ([1]; po): 450 nmol·h/L; Tmax ([1]; po): 1 h
